Key:
PPE62 = target: T1, PPE62 (Mycobacterium tuberculosis, UniProt P9WHX7); experiment: SPR (Biacore T200, NTA chip, […] binding model); details: read-out: Heme dissociation constant
T1 construct: PPE62His6 (Rv3533c)
T1 sequence (P9WHX7 1-582): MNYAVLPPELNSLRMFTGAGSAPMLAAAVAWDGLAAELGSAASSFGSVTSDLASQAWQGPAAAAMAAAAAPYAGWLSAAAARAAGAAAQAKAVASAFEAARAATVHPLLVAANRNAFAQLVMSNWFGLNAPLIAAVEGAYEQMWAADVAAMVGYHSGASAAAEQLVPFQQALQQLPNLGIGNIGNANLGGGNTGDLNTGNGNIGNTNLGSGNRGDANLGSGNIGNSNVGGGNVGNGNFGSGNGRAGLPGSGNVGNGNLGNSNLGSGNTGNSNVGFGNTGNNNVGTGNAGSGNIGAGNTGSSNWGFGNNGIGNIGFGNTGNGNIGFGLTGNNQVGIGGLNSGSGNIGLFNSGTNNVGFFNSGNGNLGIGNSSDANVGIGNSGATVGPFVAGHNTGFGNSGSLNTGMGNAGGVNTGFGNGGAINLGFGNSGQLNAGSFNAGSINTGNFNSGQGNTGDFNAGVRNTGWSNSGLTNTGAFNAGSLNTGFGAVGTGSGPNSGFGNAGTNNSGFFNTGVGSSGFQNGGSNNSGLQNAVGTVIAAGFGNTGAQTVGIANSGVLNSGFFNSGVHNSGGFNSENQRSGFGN

PPE36 = PPE36 (Mycobacterium tuberculosis, UniProt P9WI01); experiment: biochemical
Sequence of PPE36 (P9WI01 whole entry): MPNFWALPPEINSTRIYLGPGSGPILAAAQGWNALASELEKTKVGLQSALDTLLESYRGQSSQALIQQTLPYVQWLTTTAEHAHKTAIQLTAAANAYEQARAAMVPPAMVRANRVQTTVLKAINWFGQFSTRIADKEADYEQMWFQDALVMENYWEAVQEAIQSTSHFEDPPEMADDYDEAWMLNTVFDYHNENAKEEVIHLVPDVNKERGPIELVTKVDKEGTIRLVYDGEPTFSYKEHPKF
Sequence of PPE36 (L7N6B5 1-98 partner): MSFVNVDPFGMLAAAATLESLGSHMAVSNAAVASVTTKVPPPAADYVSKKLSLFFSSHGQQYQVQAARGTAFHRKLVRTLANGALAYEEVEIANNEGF

`C=CC1=C(C)C2=Cc3c(C=C)c(C)c4[n]3[Fe]([Cl])[n]3c(c(C)c(CCC(=O)O)c3=CC3=NC(=C4)C(C)=C3CCC(=O)O)=CC1=N2` [hemin] gave a Kd (PPE62) of 400 µM and a Kd (PPE36) of 4000 µM.

From publication PMC5263243, “PPE Surface Proteins Are Required for Heme Utilization by Mycobacterium tuberculosis” (mBio, 2017)
